Results on seven compounds are retold here after ChEMBL document CHEMBL1201862, “PubChem BioAssay data set” (2004).

The target in experiment [1] is Ras and Rab interactor 1/Tyrosine-protein kinase ABL1 (Homo sapiens, UniProt P00519+Q13671). It counts as functional.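 Further: biochemical TR-FRET dose-response test measuring inhibition of binding between Rin1 and Abl proteins.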
Experiment [2] addresses T1, Heat shock factor protein 1 (Mus musculus, UniProt P38532).
T1 sequence (P38532 whole entry): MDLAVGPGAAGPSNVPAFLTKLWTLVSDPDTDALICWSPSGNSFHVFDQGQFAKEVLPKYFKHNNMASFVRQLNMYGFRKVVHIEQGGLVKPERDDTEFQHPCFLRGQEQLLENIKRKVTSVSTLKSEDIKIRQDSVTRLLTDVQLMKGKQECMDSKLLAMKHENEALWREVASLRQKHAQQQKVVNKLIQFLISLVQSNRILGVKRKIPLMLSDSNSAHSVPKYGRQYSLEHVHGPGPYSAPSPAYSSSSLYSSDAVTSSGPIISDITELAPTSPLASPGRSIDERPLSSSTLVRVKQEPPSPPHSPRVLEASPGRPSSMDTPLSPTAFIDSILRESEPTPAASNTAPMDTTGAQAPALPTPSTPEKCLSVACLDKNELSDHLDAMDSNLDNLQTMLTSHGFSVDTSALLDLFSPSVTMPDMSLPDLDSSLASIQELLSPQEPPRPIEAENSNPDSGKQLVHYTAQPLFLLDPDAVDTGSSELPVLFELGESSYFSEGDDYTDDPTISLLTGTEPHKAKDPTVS
Description: enhancement of HSF1-driven luciferase signal – cell-based, NIH3T3, luminescence, dose retest, confirmation (AID 435004).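 Further: stress induced by proteasome inhibitor MG132 added 30 min after compound; luciferase reporter driven by HSF1 response element in NIH3T3 cells; actives raise luminescence as potentiators of the MG132 stress response.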 Format: functional.

Experiment [3] has as its target T2, Replicative DNA helicase DnaB (Mycobacterium tuberculosis, UniProt P9WMR3).
T2 sequence (P9WMR3 whole entry): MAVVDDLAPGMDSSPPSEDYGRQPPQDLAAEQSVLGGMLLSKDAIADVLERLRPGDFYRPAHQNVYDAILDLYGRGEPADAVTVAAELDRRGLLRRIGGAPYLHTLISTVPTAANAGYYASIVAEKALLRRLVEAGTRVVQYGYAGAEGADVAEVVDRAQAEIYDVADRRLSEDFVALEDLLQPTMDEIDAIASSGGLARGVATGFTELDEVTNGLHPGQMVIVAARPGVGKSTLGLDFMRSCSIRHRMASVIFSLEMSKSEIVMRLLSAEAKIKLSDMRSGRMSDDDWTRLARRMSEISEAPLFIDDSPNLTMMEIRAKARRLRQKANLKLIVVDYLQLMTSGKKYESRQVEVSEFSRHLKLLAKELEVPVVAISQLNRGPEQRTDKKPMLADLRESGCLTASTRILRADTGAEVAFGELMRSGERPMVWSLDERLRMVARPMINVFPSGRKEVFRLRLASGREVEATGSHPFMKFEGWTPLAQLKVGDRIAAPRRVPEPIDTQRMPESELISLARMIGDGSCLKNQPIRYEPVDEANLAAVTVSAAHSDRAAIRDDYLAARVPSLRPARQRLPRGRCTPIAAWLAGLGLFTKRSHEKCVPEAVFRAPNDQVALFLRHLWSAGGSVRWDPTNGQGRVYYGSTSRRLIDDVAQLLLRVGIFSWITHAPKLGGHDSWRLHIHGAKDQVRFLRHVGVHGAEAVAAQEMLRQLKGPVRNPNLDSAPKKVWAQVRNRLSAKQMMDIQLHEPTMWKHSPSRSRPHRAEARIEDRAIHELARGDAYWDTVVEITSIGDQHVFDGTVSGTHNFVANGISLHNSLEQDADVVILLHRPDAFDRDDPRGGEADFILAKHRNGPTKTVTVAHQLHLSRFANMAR
Put plainly: DnaB intein splicing inhibitors, dose response, biochemical, cell-free fluorescence (AID 449749). It counts as functional.

For the next experiment, the target named is T3, Protein RecA (Mycobacterium tuberculosis, UniProt P9WHJ3).
T3 sequence (P9WHJ3 whole entry): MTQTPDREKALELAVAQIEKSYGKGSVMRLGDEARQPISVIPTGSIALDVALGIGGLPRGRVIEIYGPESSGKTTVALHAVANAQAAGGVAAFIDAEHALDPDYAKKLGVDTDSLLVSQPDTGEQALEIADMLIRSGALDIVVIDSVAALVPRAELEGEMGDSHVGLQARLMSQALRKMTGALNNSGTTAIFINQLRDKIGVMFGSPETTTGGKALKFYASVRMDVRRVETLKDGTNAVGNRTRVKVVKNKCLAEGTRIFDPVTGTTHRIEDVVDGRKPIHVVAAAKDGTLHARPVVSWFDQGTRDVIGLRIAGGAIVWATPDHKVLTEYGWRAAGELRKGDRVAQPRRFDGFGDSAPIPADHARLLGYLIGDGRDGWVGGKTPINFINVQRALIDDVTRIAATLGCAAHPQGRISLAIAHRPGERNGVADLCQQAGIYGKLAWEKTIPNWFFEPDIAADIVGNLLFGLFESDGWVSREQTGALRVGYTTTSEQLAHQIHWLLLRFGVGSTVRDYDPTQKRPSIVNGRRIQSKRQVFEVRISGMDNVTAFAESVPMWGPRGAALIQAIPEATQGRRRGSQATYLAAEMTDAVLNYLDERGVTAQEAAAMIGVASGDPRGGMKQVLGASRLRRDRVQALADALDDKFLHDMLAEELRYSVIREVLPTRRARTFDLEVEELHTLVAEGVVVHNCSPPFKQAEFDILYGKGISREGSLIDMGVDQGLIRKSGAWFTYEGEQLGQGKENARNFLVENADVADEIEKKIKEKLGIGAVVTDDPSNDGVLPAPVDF
Description: Fluorescence Cell-Free Homogeneous Dose Retest to Identify Inhibitors of RecA-Intein Splicing Activity. [Related pubchem assays (depositor defined):AID2097, AID2223, AID489010, AID492950]. It counts as functional.

Experiment [4] concerns the target T4, Melanocortin receptor 4 (Homo sapiens, UniProt P32245). Put plainly: inhibitors of MC4R cAMP signaling – cell-based, TR-FRET, biased antagonists, dose response (AID 602298).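 Further: antagonist potency against agonist-stimulated cAMP production.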 It counts as functional. A general note: Time-resolved FRET reads energy transfer from a long-lived donor to a nearby acceptor.
Experiment [5] concerns the target T5, Polyadenylate-binding protein 1 (Homo sapiens, UniProt P11940). Description: MLLE binding blockers, Cy5 peptide tracer – biochemical, fluorescence polarization, Cy5-PAM2 peptide, secondary, miRNA deadenylation inhibitor project, dose response (AID 602260). It counts as functional. The following applies: read-out: IC50_Mean. (In general: Fluorescence polarisation rises when a labelled molecule tumbles more slowly, as on binding a larger partner.)

In experiment [6] the target is T5, Polyadenylate-binding protein 1. Put plainly: MLLE domain peptide-binding blockers, IC50 – biochemical, fluorescence polarization, FITC-PAM2 peptide, dose response (AID 602259). The following applies: read-out: IC50_Mean. It counts as functional.
Experiment [7] is described as follows: cAMP pathway inhibition in counterscreen cell line – TR-FRET cAMP detection, counter-screen for MC4R biased antagonist project, dose response (AID 602305).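 Further: U2OS cells stimulated with forskolin near its EC80 as the cAMP inducer; potency is for inhibition of forskolin-stimulated cAMP signaling.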 Format: functional, cell-based. In general terms: Counterscreens check selectivity or assay interference.
The target of experiment [8] is SWI/SNF-related matrix-associated actin-dependent regulator of chromatin subfamily A member 2 (Homo sapiens, UniProt P51531). Description: Luminescence-based cell-based high throughput dose response assay to identify activators of the function of SWI/SNF related, matrix associated, actin dependent regulator of chromatin, subfamily a, member 2 (SMARCA2, BRM). Format: functional.

A short description of experiment [9]: Counterscreen for activators of the function of SWI/SNF related, matrix associated, actin dependent regulator of chromatin, subfamily a, member 2 (SMARCA2, BRM): Luminescence-based cell-based high throughput dose response assay to identify non-selective compounds using the VP16 reporter assay. Format: functional.
Experiment [10] addresses T4, Melanocortin receptor 4. It counts as functional, cell-based.
The target in experiment [11] is Nuclear receptor subfamily 5 group A member 2 (Homo sapiens, UniProt O00482). Format: functional, cell-based.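 Further: HEK293T cells transfected with LRH-1 and a StAR promoter luciferase reporter; potency for inhibitors that lower LRH-1 driven reporter light.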
The next experiment concerns the target Steroidogenic factor 1 (Homo sapiens, UniProt Q13285). Put plainly: Counterscreen for inverse agonists of the liver receptor homolog-1 (LRH-1; NR5A2): Luminescence-based cell-based high throughput dose response assay to identify inverse agonists of the Steroidogenic Factor 1 Nuclear Receptor (SF1; NR5A1). It counts as functional.
A short description of experiment [12]: nonselective StAR promoter luciferase inhibitors – cell-based, luminescence, luciferase reporter, counter-screen for LRH-1 inverse agonist project, dose response (AID 651969). It counts as functional.
In experiment [13] the target is T6, Carboxy-terminal domain RNA polymerase II polypeptide A small phosphatase 1 (Homo sapiens, UniProt Q9GZU7).
T6 sequence (Q9GZU7 whole entry): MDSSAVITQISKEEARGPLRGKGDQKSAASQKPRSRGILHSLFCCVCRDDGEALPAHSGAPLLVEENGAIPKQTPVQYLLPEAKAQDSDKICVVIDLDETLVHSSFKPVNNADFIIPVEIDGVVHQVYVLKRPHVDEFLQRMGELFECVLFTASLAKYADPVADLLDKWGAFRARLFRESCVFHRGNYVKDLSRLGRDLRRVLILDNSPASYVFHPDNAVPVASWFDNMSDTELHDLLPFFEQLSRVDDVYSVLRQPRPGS
Put plainly: CTDSP1 inhibitors, concentration-response, biochemical, absorbance readout, ultra-high-throughput screen actives (AID 540297). Format: functional.

For experiment [14], the target named is T7, Small ubiquitin-related modifier 2 (Homo sapiens, UniProt P61956). Put plainly: disruption of SUMO2 interaction with SIM peptide – biochemical, fluorescence polarization, uHTS hits, selectivity assay for SUMO1 interaction inhibitor project, dose response (AID 624385). It counts as functional. The conditions noted are these: read-out: IC50_Mean.
Experiment [15] concerns the target T8, Small ubiquitin-related modifier 1 (Homo sapiens, UniProt P63165). Put plainly: SUMO1 protein interaction blockers, potency – biochemical, fluorescence polarization, uHTS hits, dose response (AID 624382). It counts as functional. The following applies: read-out: IC50_Mean.
Experiment [16] has as its target T9, Probable nicotinate-nucleotide adenylyltransferase (Staphylococcus aureus (strain N315), UniProt P65502). It counts as functional, Staphylococcus aureus subsp. aureus N315.
The target of experiment [17] is T9, Probable nicotinate-nucleotide adenylyltransferase. It counts as functional, Staphylococcus aureus subsp. aureus N315. The conditions noted are these: read-out: IC50_Mean.
Experiment [18] concerns the target T7, Small ubiquitin-related modifier 2. Description: SUMO2 binding disruption by SUMO1 hits – biochemical, FRET, human SUMO2, uHTS hits, selectivity assay for SUMO1 interaction inhibitor project, dose response (AID 624384). It counts as functional. The conditions noted are these: read-out: IC50_Mean.
For experiment [19], the target named is T8, Small ubiquitin-related modifier 1. Put plainly: SUMO1 protein-protein binding blockers, potency – biochemical, FRET, dose response (AID 624383). Format: functional. The conditions noted are these: read-out: IC50_Mean.
The target in experiment [20] is T10, COUP transcription factor 2 (Homo sapiens, UniProt P24468).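 Further: HEK293 cells transiently cotransfected with COUP-TFII expression vector and reporter; luciferase reporter luminescence driven by COUP-TFII from the pX2-168 reporter plasmid.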
T10 sequence (P24468 whole entry): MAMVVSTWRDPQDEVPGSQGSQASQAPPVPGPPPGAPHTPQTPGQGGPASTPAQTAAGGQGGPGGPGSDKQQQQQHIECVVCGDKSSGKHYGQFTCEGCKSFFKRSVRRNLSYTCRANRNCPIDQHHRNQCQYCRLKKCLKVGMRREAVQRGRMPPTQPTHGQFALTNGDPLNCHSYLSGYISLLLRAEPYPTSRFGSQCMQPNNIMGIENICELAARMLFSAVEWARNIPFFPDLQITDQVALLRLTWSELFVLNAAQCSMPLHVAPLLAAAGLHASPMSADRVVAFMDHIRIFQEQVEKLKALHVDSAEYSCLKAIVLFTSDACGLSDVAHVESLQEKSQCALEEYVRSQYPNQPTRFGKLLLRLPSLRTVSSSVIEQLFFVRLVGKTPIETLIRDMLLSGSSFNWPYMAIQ
Put plainly: Luminescence-based cell-based high throughput dose response assay to identify inhibitors of COUP-TFII (NR2F2). Format: functional.

A short description of experiment [21]: cells. Format: functional, cell-based.
The nature of experiment [22]: cells. Format: functional, cell-based. This is another data set of the same source.

Calls of active or inactive are those of the source.

T8 sequence (P63165 whole entry): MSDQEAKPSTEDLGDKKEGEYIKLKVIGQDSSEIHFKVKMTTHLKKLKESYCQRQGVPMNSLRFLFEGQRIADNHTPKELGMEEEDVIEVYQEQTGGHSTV
T7 sequence (P61956 whole entry): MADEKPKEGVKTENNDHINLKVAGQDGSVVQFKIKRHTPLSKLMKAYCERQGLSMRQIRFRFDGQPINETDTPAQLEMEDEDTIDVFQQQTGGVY
Sequence of Ras and Rab interactor 1/Tyrosine-protein kinase ABL1 (P00519 whole entry): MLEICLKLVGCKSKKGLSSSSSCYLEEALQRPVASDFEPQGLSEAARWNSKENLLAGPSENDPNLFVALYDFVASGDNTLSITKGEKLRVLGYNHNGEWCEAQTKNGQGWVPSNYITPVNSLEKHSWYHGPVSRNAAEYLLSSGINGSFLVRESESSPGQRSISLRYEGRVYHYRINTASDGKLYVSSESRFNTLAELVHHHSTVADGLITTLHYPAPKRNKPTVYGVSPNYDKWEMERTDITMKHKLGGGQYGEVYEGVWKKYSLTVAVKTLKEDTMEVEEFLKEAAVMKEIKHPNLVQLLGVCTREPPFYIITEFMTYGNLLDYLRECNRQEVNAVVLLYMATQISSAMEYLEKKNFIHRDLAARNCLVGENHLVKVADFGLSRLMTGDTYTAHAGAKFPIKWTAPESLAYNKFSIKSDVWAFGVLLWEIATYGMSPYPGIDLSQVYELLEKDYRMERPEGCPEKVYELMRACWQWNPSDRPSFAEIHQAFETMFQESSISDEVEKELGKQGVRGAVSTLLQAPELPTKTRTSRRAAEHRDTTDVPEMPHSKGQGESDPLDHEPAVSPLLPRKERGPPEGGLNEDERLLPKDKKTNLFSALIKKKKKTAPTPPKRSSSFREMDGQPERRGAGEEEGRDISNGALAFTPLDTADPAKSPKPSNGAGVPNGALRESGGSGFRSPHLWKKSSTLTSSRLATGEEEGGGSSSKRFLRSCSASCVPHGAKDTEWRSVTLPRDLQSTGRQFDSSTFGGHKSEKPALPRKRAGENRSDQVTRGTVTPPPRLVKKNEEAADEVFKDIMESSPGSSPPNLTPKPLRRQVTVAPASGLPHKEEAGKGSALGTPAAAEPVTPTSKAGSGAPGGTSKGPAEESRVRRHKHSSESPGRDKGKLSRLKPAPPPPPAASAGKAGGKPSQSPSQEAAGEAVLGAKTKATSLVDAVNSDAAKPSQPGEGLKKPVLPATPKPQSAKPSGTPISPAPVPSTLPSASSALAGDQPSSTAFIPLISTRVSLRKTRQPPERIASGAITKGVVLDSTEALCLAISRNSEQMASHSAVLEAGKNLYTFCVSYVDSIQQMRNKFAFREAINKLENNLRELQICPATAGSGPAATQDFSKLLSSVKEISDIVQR
Sequence of Ras and Rab interactor 1/Tyrosine-protein kinase ABL1 (Q13671 whole entry): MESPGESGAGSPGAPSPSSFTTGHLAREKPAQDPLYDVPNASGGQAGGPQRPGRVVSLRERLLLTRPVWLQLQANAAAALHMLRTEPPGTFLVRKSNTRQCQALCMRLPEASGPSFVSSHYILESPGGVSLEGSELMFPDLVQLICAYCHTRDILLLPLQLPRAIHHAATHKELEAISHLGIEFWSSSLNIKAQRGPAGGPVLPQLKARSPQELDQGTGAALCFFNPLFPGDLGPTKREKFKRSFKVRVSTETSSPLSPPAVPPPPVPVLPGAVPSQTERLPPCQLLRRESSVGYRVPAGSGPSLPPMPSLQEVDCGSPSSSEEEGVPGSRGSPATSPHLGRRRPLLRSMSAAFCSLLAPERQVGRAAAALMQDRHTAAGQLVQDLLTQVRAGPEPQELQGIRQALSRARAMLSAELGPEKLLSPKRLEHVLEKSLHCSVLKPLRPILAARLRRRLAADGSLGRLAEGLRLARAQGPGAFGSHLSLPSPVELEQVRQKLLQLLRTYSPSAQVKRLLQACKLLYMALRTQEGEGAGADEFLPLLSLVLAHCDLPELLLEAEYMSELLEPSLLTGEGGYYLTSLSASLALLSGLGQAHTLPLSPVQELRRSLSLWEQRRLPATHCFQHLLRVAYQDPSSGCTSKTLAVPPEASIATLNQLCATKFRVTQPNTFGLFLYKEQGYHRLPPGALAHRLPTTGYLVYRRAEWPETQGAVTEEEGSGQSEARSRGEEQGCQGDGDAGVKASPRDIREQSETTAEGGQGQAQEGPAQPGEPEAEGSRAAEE
T5 sequence (P11940 whole entry): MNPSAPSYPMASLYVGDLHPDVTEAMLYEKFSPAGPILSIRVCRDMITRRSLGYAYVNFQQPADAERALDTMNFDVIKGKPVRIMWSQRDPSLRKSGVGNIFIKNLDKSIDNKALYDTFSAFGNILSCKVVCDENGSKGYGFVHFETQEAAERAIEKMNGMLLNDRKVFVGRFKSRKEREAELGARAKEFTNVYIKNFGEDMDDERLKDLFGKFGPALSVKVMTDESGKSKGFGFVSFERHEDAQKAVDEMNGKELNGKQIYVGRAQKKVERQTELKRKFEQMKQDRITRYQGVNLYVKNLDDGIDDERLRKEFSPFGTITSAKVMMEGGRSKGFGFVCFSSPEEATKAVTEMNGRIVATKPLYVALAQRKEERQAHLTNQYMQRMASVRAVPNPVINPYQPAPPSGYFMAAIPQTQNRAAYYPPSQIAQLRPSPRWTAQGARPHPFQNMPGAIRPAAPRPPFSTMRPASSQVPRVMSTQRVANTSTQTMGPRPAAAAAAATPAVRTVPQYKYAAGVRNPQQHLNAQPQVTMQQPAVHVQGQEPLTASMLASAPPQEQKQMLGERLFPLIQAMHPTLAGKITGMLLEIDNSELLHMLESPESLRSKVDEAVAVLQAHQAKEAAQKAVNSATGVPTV
T9 sequence (P65502 whole entry): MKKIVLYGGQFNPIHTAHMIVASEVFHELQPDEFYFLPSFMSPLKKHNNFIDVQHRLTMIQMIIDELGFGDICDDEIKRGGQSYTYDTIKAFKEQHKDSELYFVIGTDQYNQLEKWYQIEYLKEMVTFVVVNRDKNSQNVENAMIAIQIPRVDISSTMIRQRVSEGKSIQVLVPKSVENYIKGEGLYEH
Sequence of Steroidogenic factor 1 (Q13285 whole entry): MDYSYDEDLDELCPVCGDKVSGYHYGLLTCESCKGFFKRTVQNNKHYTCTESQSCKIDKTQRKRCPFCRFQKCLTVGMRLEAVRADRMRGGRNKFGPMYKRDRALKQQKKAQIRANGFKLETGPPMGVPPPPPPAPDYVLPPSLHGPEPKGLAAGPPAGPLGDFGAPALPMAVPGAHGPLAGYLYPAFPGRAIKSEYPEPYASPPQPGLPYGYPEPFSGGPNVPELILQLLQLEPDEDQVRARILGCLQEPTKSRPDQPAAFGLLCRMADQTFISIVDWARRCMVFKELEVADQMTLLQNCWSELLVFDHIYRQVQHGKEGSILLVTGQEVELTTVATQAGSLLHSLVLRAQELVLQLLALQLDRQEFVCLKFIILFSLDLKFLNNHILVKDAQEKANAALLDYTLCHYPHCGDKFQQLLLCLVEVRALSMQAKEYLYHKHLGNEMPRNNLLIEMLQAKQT
Sequence of Nuclear receptor subfamily 5 group A member 2 (O00482 whole entry): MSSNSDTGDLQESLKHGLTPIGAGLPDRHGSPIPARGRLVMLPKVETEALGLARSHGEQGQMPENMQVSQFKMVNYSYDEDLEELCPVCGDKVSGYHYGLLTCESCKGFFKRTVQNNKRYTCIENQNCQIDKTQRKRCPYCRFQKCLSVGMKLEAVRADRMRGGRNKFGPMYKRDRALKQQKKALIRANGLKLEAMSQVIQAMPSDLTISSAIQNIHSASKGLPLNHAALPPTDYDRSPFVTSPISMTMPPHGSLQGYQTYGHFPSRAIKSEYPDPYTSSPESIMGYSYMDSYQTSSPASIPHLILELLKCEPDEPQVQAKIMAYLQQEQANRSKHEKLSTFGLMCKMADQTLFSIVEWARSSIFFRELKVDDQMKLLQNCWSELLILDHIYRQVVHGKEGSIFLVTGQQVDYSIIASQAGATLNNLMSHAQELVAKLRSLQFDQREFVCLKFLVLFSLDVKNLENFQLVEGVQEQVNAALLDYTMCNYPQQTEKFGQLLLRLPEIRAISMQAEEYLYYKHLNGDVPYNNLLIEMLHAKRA
T4 sequence (P32245 whole entry): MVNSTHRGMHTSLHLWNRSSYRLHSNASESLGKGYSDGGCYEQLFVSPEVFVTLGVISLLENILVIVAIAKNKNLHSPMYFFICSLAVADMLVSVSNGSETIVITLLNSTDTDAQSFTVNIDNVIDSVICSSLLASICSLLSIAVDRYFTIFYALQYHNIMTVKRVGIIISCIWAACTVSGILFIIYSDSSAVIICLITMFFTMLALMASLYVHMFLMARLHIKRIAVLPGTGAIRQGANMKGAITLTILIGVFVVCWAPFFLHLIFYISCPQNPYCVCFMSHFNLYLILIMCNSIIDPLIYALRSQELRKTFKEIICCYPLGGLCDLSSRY

Consider `CCCCc1nnc(NC(=O)c2ccc(OCc3c(C)noc3C)cc2)s1`, for which the IC50 in [1] is > 73.5 µM (inactive).

Consider `CC(=O)Nc1cccc(NC(=O)CSc2ncc(C(=O)Nc3ccccc3)c(=O)n2C)c1`, for which the EC50 in experiment [2] is 12.8 µM (active); on Protein RecA it was 1.61 µM (active); in [8], > 91.1 µM (inactive); in [9], > 91.1 µM (inactive). The AC50 in experiment [3] is 6.51 µM (active). The IC50 is > 64.6 µM (inactive) at Melanocortin receptor 4 [4], > 66 µM (inactive) in [5], > 66 µM (inactive) in [6] and > 64.6 µM (inactive) in experiment [7].

Take `CC(=O)Nc1cc(-c2cccnc2)cn2c(-c3ccc(F)cc3)cnc12`: the EC50 at Melanocortin receptor 4 [10] is > 89.2 µM (inactive). For the same compound, the IC50 in experiment [11] was 22.3 µM (inactive); at Steroidogenic factor 1, 4.56 µM (active); in experiment [12] it was 35.9 µM (inactive).

As for `O=C1N=c2ccccc2=C1Nc1ccc(S(=O)(=O)Nc2nccs2)cc1`, the IC50 is 4.2 µM (active) in experiment [13]; 9.54 µM (active) in experiment [14]; 11 µM (active) in experiment [15]; 5.32 µM (active) in experiment [16]; 15.5 µM (active) in [17]; 46.1 µM (inactive) in experiment [18]. Further, the IC50 in [19] was 51 µM (inactive).

`C[C@H]([C@@H](O)[C@@H](O)[C@@H](C)C(C)(C)C)[C@H]1CC[C@H]2[C@@H]3CC[C@H]4C[C@H](OS(=O)(=O)O)[C@@H](OS(=O)(=O)O)C[C@]4(C)[C@H]3CC[C@]12C`: the IC50 in experiment [14] is 25.5 µM (inactive); in experiment [15], 11 µM (active); in experiment [18] it was 16.3 µM (active); in [19], 22.5 µM (inactive).

As to `OC[C@@H]1CN(Cc2ccc(-c3ccccc3)cc2)C[C@H](n2cnc3c(NC4CCC4)ncnc32)O1`, the IC50 in experiment [1] is 16.7 µM (inactive); in [20] it was 8.62 µM (active).

Turning to `COc1ccc(NC(=O)CSc2[nH]cnc3nncc2-3)cc1`, the EC50 in “cells [21]” and in “cells [22]” was > 350 µM (not active) throughout. The IC50 is 1.37 µM (active) in experiment [11], 1.73 µM (active) at Steroidogenic factor 1 and 35.9 µM (inactive) in [12].

One may read the EC50 as the concentration giving half of the maximal effect. For orientation: AC50 means the midpoint of the concentration-response curve, whichever way the signal moves.
